The values below come from paper PMC12378621, “Benzo-ring modification on Malaria Box hit MMV008138: effects on antimalarial potency and microsomal stability” (RSC Medicinal Chemistry, 2025).

Data set [1] relates to P. falciparum (Dd2 strain). Particulars: 72 h exposure, multidrug-resistant Dd2 strain; reported values; read-out: Dd2 strain EC50; cited from earlier work.
Data set [2] has as its system P. falciparum (Dd2 strain). The experiment in a line: ABS P. falciparum growth inhibition, SYBR Green I assay, 72 h endpoint. Format: cell-based, Plasmodium falciparum. Particulars: for EC50: Plasmodium falciparum, DD2, SYBR Green I, 72 h endpoint, read-out: Dd2 strain P. falciparum growth inhibition EC50; for loss of growth inhibition potency (EC50) relative to 1: Dd2 strain. As for the experimental part:
Parasites were maintained in O-positive human erythrocytes (Grifols, Memphis, TN, USA) at 5% hematocrit in RPMI 1640 medium supplemented with 5 g L^−1 Albumax I (Gibco Life Technologies), 2 g L^−1 glucose (Sigma-Aldrich), 2.3 g L^−1 sodium bicarbonate (Sigma-Aldrich), 370 μM hypoxanthine (Sigma-Aldrich), 25 mM HEPES, and 20 mg L^−1 gentamicin (Gibco Life Technologies). The parasites were kept at 37 °C under reduced-oxygen conditions (5% CO2, 5% O2, and 90% N2).
(§1) […]. MMV008138 (1) was used as control. The percentage of growth was normalized to that of untreated control parasites in the presence of 0.1% DMSO. Background determinations were made using uninfected erythrocytes. Two or more independent experiments in duplicate were performed. The EC50 values were calculated with GraphPad Prism 9 (GraphPad Software Ltd.) using nonlinear regression curve fitting with variable slope (four parameters) and represent the average and their standard error of the mean (S.E.M.). To assess whether 20a–e specifically targeted the apicoplast, the recovery of growth in the presence of inhibitor and isopentenyl diphosphate (IPP) was performed as described previously.[8] Briefly, parasites were grown in the presence or absence of 200 μM IPP along with a serial dilution (10 μM to 0.01 μM) or single concentration (10 or 20 μM) of drug. […] All conditions were set in 96-well half area plates using highly synchronous ring-stage parasite cultures (100 μL per well at 1% hematocrit and 1% parasitemia) and incubated for 72 h under normal culture conditions. Parasite growth was measured by the SYBR green I assay.

In data set [3] the test system is P. falciparum (Dd2 strain). The experiment in a line: Metabolic rescue of parasite growth by isopentenyl diphosphate (IPP) supplementation. Format: cell-based, Plasmodium falciparum. To be noted: drug at 10 μM. As for the experimental part: as §1
Data set [4] has as its system Plasmodium berghei ANKA expressing luciferase (PbGFP-Luccon). The experiment in a line: In vivo efficacy in P. berghei-infected mice (luminescence on Day 7). As for the experimental part: 2. In vivo efficacy studies of 1 (NYU) in P. berghei-infected mice (po and iv) Efficacy of 1 in P. berghei-infected mice was assessed at the Anti-Infectives Core Facility, Department of Microbiology, Grossman School of Medicine, New York University.
A. Oral Administration Protocol
Three groups of five female Swiss Webster mice weighing 25 to 30 g were used for vehicle […]
berghei ANKA expressing luciferase (PbGFP-Luccon) obtained from a donor infected mouse.10 […]
2 to 6 and imaged on day 7.
Figure S1. Dosing and imaging timeline of P. berghei-infected mice. […]
Day 7 as described in the text.
The vehicle for all groups was 0.5% (hydroxypropyl)methyl cellulose, 0.5% Tween-80.
For the surviving mice, o n day 7 after infection, mice were anesthetized by inhalation of isofluorane and injected via i.p. with 150 mg/kg of luciferase substrate dissolved in PBS (D-Luciferin Potassium Salt , Gold Biotechnology ).
Mice were imaged 5 to 10 min after inj ection of luciferin using an IVIS imager (Lumina II In Vivo Imaging System; Perkin -Elmer). The data acquisition and analysis were performed with LivingImage (Xenogen). Accumulated light intensity was measured in each mouse to determine the baseline infection levels before treatment .
(1 picture or pasted object on this page, not shown here)
B. IV Administration Protocol
One group of four female Swiss Webster mice weighing 25 to 30 g were used for vehicle control, and groups of five mice were used for 1 treatment (IV, 2 x 30 mg/kg/d) and the positive […]
On Day 0, mice were infected via intraperitoneal (i.p.) […]
from a donor infected mouse. 10 As shown below in Figure S2 (and legend), mice were treated […]
Figure S2. Dosing and imaging timeline of P. berghei-infected mice. Vehicle and 1 (30 mpk) treatments were administered IV twice -daily on Days 2-6. […]
administered i .p. once-daily. Mice were imaged on Day 7, as described in the text.
The vehicle for this study was 30%PEG, 40% Captisol (30%w/v solution).
Table S2. Luminescence Data after background subtraction for IV dosing of Vehicle, 1, and IP […]
Table S9. Concentration of 20c vs time in mice. […]
Figure S6. Dosing and imaging timeline of P. berghei-infected mice. […]

The nature of data set [5]: Mouse microsomal stability (authors' laboratory, UPLC/MS/MS). To be noted: presence of NADPH. The protocol:
Mouse microsomal stability of 20a, 20c, 20d was first assessed in our laboratory. […]
and coumarin were used as controls . Microsomal stability was assessed by ultra-performance liquid chromatography and high -resolution mass spectrometry […]
MA). Potassium phosphate monobasic, potassium phosphate dibasic, and coumarin were purchased from Sigma-Aldrich (St. Louis, MO). Briefly, compound incubations were carried out by the addition of mouse liver microsomes (0.5 mg/ml) in 0.05 M potassium phosphate buffer (pH 7.4), solution A and B, and preincubated at 37°C for 5 min. Control experiments were also carried out in the absence of NADPH solution A and B. Coumarin reaction was used as positive control. Reactions were terminated by adding acetonitrile. Sample analysis was performed on an IonKey/MS system composed of an ACQUITY UPLC M-Class, the ionKey source, and an iKey BEH C18 130 Å 1.7 µm 150 µm x 50 mm column coupled to a Synapt G2-Si mass spectrometer (Waters Corporation, Milford, MA, USA). Separation was accomplished using a binary gradient system consisting of 0.1% formic acid in water (mobile phase A) and 0.1% formic acid in acetonitrile (mobile phase B). The linear gradient was programmed as follows: 0-3 min 1% B, 3- […]
was 3 µL/min, the injection volume was 3 µL in full loop mode, and the iKey temperature was set at 40°C. MS analyses were performed acquiring in MSE mode from 80 to 1500 m/z in positive electrospray ionization mode with a capillary voltage of 3 kV. Data were collected in two channels all the time: low collision energy (6.0 V), for the molecular ions, and high collision energy (15-40 V), for product ions. The source temperature was set at 110°C. Leucine […]
scan at 20 s intervals. Infusion flow rate for lock mass was 1 μL/min. The microsomal stability was determined using MassLynx software (Waters Corporation, Milford, MA, USA). Relative amounts were calculated by comparing the peak area of each evaluated compound at time 0 minutes to its corresponding area at times 45, 90 and 180 minutes to return a ratio.

The mark [6] stands for this setting: Table 2, enantiopure, average ± S.E.M.
Setting [7] is: Table S2, Days 2-6, imaged Day 7, Cmpd 1 30 mg/kg 2 x daily IV, CQ 20 mg/kg 1 x daily i.p.

“And” between values parts separate entries of the source, which are not always exact repeats. Equal values may be shown once. Read-outs that look alike come from different tables or passages of the source. A value given as a limit tells only on which side of the number the result lay.

On to `CC(C)NC(=O)[C@@H]1Cc2c([nH]c3ccccc23)[C@@H](c2ccc(Cl)cc2Cl)N1` [Compound 10], for which the EC50 – broadly, the concentration giving half of the maximal effect – in data set [1] was roughly 10 µM.
For `O=C(O)[C@@H]1Cc2c([nH]c3ccccc23)[C@@H](c2ccccc2)N1` [Compound 5], the EC50 in data set [1] is greater than 10 µM.
Turning to `N#Cc1cccc2[nH]c3c(c12)C[C@@H](C(=O)O)N[C@@H]3c1ccc(Cl)cc1Cl` [Compound 21a], in data set [2] (setting [6]), the EC50 was greater than 10 µM.
Same read-out and setting: in the case of `N#Cc1ccc2c3c([nH]c2c1)[C@@H](c1ccc(Cl)cc1Cl)N[C@H](C(=O)O)C3` [Compound 21c] it was greater than 20 µM.
With `Cc1cccc2c3c([nH]c12)[C@@H](c1ccc(Cl)cc1Cl)N[C@H](C(=O)O)C3` (racemic) [(±)-16d], in data set [2] (Table 1, racemic samples), the half-maximal effective concentration (EC50) is greater than 10 µM.
For the compound `CCNC(=O)[C@@H]1Cc2c([nH]c3ccccc23)[C@@H](c2ccc(Cl)cc2Cl)N1` [Compound 8], the EC50 in data set [1] was roughly 5 µM.
`O=C(O)[C@@H]1Cc2c([nH]c3cccc(C(F)(F)F)c23)[C@@H](c2ccc(Cl)cc2Cl)N1` (racemic) [(±)-17a]: the EC50 in data set [2] (Table 1, racemic samples) is greater than 10 µM.
On to `O=C(O)[C@@H]1Cc2c([nH]c3c(Br)cccc23)[C@@H](c2ccc(Cl)cc2Cl)N1` [Compound 18d], for which the EC50 in data set [2] (setting [6]) was greater than 10 µM.
In the case of `CCCCNC(=O)[C@@H]1Cc2c([nH]c3ccccc23)[C@@H](c2ccc(Cl)cc2Cl)N1` [Compound 9], the EC50 in data set [1] was greater than 10 µM.
For `O=C(O)[C@@H]1Cc2c([nH]c3cc(F)cc(F)c23)[C@@H](c2ccc(Cl)cc2Cl)N1` [Compound 20e], the EC50 in data set [2] (setting [6]) came to 0.964 ± 0.063 µM. In addition, the “% recovery (200 μM IPP)” value in data set [3] is given as 80%@10 μM.
On to `CCN(CC)CCCC(C)Nc1ccnc2cc(Cl)ccc12` (centres unmarked) [CQ, chloroquine], for which the “Luminescence AVG” value in data set [4] (Table S1, oral 1 x daily Days 2-6, imaged Day 7, CQ 20 mg/kg) turned out to be 4.65E+03. The “Live/Dead and luminescence, individual mice” value in data set [4] (Table S1, oral 1 x daily Days 2-6, imaged Day 7, Cmpd 1 45 mg/kg, CQ 20 mg/kg) is 4.72E+03 and 4.45E+03 and 4.90E+03 and 4.60E+03 and 4.61E+03. For the same compound, in data set [4] (setting [7]), the “Luminescence after background subtraction AVG” value stood at 2.29E+03; the “Luminescence after background subtraction, individual mice” value was 0.00E+00 and 4.64E+03 and 2.76E+03 and 3.48E+03. In addition, in data set [4] (Table S10, 40 mg/kg 1 x daily PO Days 2-6, imaged Day 7), the “Luminescence after background subtraction, individual mice” value was 4.90E+03 and 3.85E+03 and 4.20E+03. Also, the “treated mice survived to Day 7” value in data set [4] (oral Days 2-6) stood at 5.
`O=C(O)[C@@H]1Cc2c([nH]c3cc(Cl)ccc23)[C@@H](c2ccc(Cl)cc2Cl)N1` [Compound 19c]: the “loss of growth inhibition potency (EC50) relative to 1” value in data set [2] was found to be 5 fold. Moreover, the EC50 in data set [2] (setting [6]) turned out to be 1.3 ± 0.1 µM.
In the case of `CNC(=O)[C@@H]1Cc2c([nH]c3ccccc23)[C@@H](c2ccc(Cl)cc2Cl)N1` [Compound 7], in data set [1], the EC50 is 0.19 ± 0.03 µM.
As to `O=C(O)[C@@H]1Cc2c([nH]c3ccccc23)[C@@H](c2ccc(Br)cc2Cl)N1` [Compound 2], the EC50 in data set [1] was 0.32 ± 0.06 µM.
Regarding `Cc1cccc2[nH]c3c(c12)C[C@@H](C(=O)O)N[C@@H]3c1ccc(Cl)cc1Cl` (racemic) [(±)-16a], the EC50 in data set [2] (Table 1, racemic samples) is greater than 10 µM.
With `O=C(O)[C@@H]1Cc2c([nH]c3ccccc23)[C@@H](c2ccc(Cl)cc2)N1` [Compound 4], in data set [1], the EC50 is 1.17 µM.
Regarding `O=C(O)[C@@H]1Cc2c([nH]c3cccc(Cl)c23)[C@@H](c2ccc(Cl)cc2Cl)N1` (racemic) [(±)-19a], in data set [2] (Table 1, racemic samples), the EC50 was greater than 10 µM.
Consider `O=C(O)[C@@H]1Cc2c([nH]c3ccccc23)[C@@H](c2ccccc2Cl)N1` [Compound 3], for which, in data set [1], the EC50 was 3.28 µM.
`O=C(O)[C@@H]1Cc2c([nH]c3ccc(F)cc23)[C@@H](c2ccc(Cl)cc2Cl)N1` [Compound 20b]: the EC50 in data set [2] (setting [6]) was in the range of 1.25 to 2.5 µM.
As for `NC(=O)[C@@H]1Cc2c([nH]c3ccccc23)[C@@H](c2ccc(Cl)cc2Cl)N1` [Compound 6], the EC50 in data set [1] was 1.2 µM.
Take `O=C(O)[C@@H]1Cc2c([nH]c3ccc(Br)cc23)[C@@H](c2ccc(Cl)cc2Cl)N1` (racemic) [(±)-18b]: the EC50 in data set [2] (Table 1, racemic samples) is greater than 10 µM.
For the compound `N#Cc1ccc2[nH]c3c(c2c1)C[C@@H](C(=O)O)N[C@@H]3c1ccc(Cl)cc1Cl` [Compound 21b], the EC50 in data set [2] (setting [6]) was greater than 10 µM.
With `O=C(O)[C@@H]1Cc2c([nH]c3cc(C(F)(F)F)ccc23)[C@@H](c2ccc(Cl)cc2Cl)N1` (racemic) [(±)-17c], in data set [2] (Table 1, racemic samples), the EC50 lay in the range of 1.25 to 2.5 µM.
Consider `O=c1ccc2ccccc2o1` [coumarin], for which the “% drug remaining” value in data set [5] (0 min) came to 100%; in data set [5] (45 min), 27%; in data set [5] (90 min), 5%.
Regarding `Cc1ccc2[nH]c3c(c2c1)C[C@@H](C(=O)O)N[C@@H]3c1ccc(Cl)cc1Cl` (racemic) [(±)-16b], in data set [2] (Table 1, racemic samples), the EC50 was greater than 10 µM.
For `O=C(O)[C@@H]1Cc2c([nH]c3cc(Br)ccc23)[C@@H](c2ccc(Cl)cc2Cl)N1` [Compound 18c], in data set [2], the “loss of growth inhibition potency (EC50) relative to 1” value is 17 fold. Also, in data set [2] (setting [6]), the 50% effective concentration (EC50) turned out to be 4.3 ± 0.6 µM.
`Cc1ccc2c3c([nH]c2c1)[C@@H](c1ccc(Cl)cc1Cl)N[C@H](C(=O)O)C3` (racemic) [(±)-16c]: in data set [2] (Table 1, racemic samples), the EC50 is greater than 10 µM.
`O=C(O)[C@@H]1Cc2c([nH]c3cccc(Br)c23)[C@@H](c2ccc(Cl)cc2Cl)N1` [Compound 18a]: the concentration for a half-maximal effect (EC50) in data set [2] (setting [6]) was greater than 10 µM.
